For 17 compounds, MIC results are on record in patent publication US11673910B2, “Macrolides with modified desosamine sugars and uses thereof” (Zikani Therapeutics, Inc., priority 2017, dated 2023).

Values after ≈ are worked out from the molar mass of the structure shown.

Common to all, as to format: cell-based
Assay [1] relates to A. baumannii strain MP-15. The assay can be described thus: Broth dilution MIC determination (CLSI) against A. baumannii strain MP-15. To be noted: Acinetobacter baumannii, MP15. In short, it runs like this:
(§1)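 Reported scores reflect MIC ranges, with +++ at or below 4 mg/L, ++ from 8 up to under 32 mg/L, and + at 32 mg/L or higher. The macrolides were tested following CLSI broth dilution procedures.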
(In broth dilution the organism is exposed to a series of concentrations in liquid medium.)

For a further assay, the system named is E. coli strain MP-4. The assay can be described thus: Broth dilution MIC determination (CLSI) against E. coli strain MP-4. To be noted: Escherichia coli, MP4. An outline of the steps:
as §1

Another assay relates to S. aureus strain MP-12. The assay is described as follows: Broth dilution MIC determination (CLSI) against S. aureus strain MP-12. To be noted: Staphylococcus aureus, MP12, strain MP-12. An outline of the steps:
as §1

Assay [2] has as its system K. pneumoniae strain MP-548. The assay can be described thus: Broth dilution MIC determination (CLSI) against K. pneumoniae strain MP-548. The conditions noted are these: Klebsiella pneumoniae, MP548. An outline of the steps: as §1
The test system of assay [3] is P. aeruginosa strain MP-3. The assay is described as follows: Broth dilution MIC determination (CLSI) against P. aeruginosa strain MP-3. To be noted: Pseudomonas aeruginosa, MP3. In short, it runs like this:
as §1

For `CO[C@]1(C)C[C@@H](C)CN[C@H](C)[C@H]2NC(=O)O[C@]2(C)[C@@H](C)OC(=O)C(C)C(=O)[C@H](C)[C@H]1OC1OC(CNCC2CC2)CC(N(C)C)C1O` (stereo partly shown) [Compound 148, 3-Descladinosyl-3-oxo-6-O-methyl-N9a-desmethyl-11,12-dideoxy-12,11-(oxycarbonylimino)-6′-cyclopropylmethylamino-13-methyl Azithromycin], the minimum inhibitory concentration (MIC) (in assay [1]; against E. coli strain MP-4; in the assay with S. aureus strain MP-12; in assay [2]; in assay [3]) was at least 32 µg/mL each time.

As for `CO[C@]1(C)C[C@@H](C)CN[C@H](C)[C@H]2NC(=O)O[C@]2(C)[C@@H](C)OC(=O)C(C)C(=O)[C@H](C)[C@H]1OC1OC(CN2CCCCC2)CC(N(C)C)C1O` (stereo partly shown) [Compound 149, 3-Descladinosyl-3-oxo-6-O-methyl-N9a-desmethyl-11,12-dideoxy-12,11-(oxycarbonylimino)-6′-piperidinyl-13-methyl Azithromycin], the MIC (as a rule, the smallest concentration in the dilution series that meets the test's criterion for growth inhibition) was at least 32 µg/mL in assay [1]; at most 4 µg/mL against E. coli strain MP-4; at least 32 µg/mL with S. aureus strain MP-12; at least 32 µg/mL in assay [2]; at least 32 µg/mL in assay [3].

Take `CC[C@H]1OC(=O)C(C)C(=O)[C@H](C)[C@@H](OC2OC(CN(C)C3CCC3)CC(N(C)C)C2O)[C@](C)(OC)C[C@@H](C)CN[C@H](C)[C@H]2NC(=O)O[C@@]21C` (stereo partly shown) [Compound 150, 3-Descladinosyl-3-oxo-6-O-methyl-N9a-desmethyl-11,12-dideoxy-12,11-(oxycarbonylimino)-6′-methylcyclobutylamino Azithromycin]: the MIC in assay [1] is at least 32 µg/mL; with E. coli strain MP-4, 8 to 32 µg/mL (≈ 11.5 to 45.9 µM); in the assay with S. aureus strain MP-12, at least 32 µg/mL; in assay [2], at least 32 µg/mL; in assay [3], at least 32 µg/mL.

As to `CC[C@H]1OC(=O)C(C)C(=O)[C@H](C)[C@@H](OC2OC(CN(C)CC)CC(N(C)C)C2O)[C@](C)(OC)C[C@@H](C)CN[C@H](C)[C@H]2NC(=O)O[C@@]21C` (stereo partly shown) [Compound 151, 3-Descladinosyl-3-oxo-6-O-methyl-N9a-desmethyl-11,12-dideoxy-12,11-(oxycarbonylimino)-6′-methylethylamino Azithromycin], the MIC in assay [1] was at least 32 µg/mL; against E. coli strain MP-4 it was at most 4 µg/mL; with S. aureus strain MP-12, at least 32 µg/mL; in assay [2], 8 to 32 µg/mL (≈ 11.9 to 47.7 µM); in assay [3] it was at least 32 µg/mL.

With `CC[C@H]1OC(=O)C(C)C(=O)[C@H](C)[C@@H](OC2OC(CN(C)C34CC(C3)C4)CC(N(C)C)C2O)[C@](C)(OC)C[C@@H](C)CN[C@H](C)[C@H]2NC(=O)O[C@@]21C` (stereo partly shown) [Compound 152, 3-Descladinosyl-3-oxo-6-O-methyl-N9a-desmethyl-11,12-dideoxy-12,11-(oxycarbonylimino)-6′-bicyclo[1.1.1]pentanylmethylamino Azithromycin], the MIC is 8 to 32 µg/mL (≈ 11.3 to 45.1 µM) in assay [1]; at least 32 µg/mL in the assay with E. coli strain MP-4; 8 to 32 µg/mL (≈ 11.3 to 45.1 µM) with S. aureus strain MP-12; at least 32 µg/mL in assay [2]; at least 32 µg/mL in assay [3].

For `CC[C@H]1OC(=O)C(C)C(=O)[C@H](C)[C@@H](OC2OC(CN(C)CC3CC3)CC(N(C)C)C2O)[C@](C)(OC)C[C@@H](C)CN[C@H](C)[C@H]2NC(=O)O[C@@]21C` (stereo partly shown) [Compound 153, 3-Descladinosyl-3-oxo-6-O-methyl-N9a-desmethyl-11,12-dideoxy-12,11-(oxycarbonylimino)-6′-methylcyclopropylmethylamino Azithromycin], the MIC in assay [1] was at least 32 µg/mL; against E. coli strain MP-4, at most 4 µg/mL; in the assay on S. aureus strain MP-12 it was at least 32 µg/mL; in assay [2], at least 32 µg/mL; in assay [3], at least 32 µg/mL.

In the case of `CC[C@H]1OC(=O)C(C)C(=O)[C@H](C)[C@@H](OC2OC(CN(C)C(C)C)CC(N(C)C)C2O)[C@](C)(OC)C[C@@H](C)CN[C@H](C)[C@H]2NC(=O)O[C@@]21C` (stereo partly shown) [Compound 154, 3-Desdadinosyl-3-oxo-6-O-methyl-N9a-desmethyl-11,12-dideoxy-12,11-(oxycarbonylimino)-6′-isopropylmethylamino Azithromycin], the minimal inhibitory concentration (MIC) was at least 32 µg/mL in assay [1]; at most 4 µg/mL against E. coli strain MP-4; at least 32 µg/mL against S. aureus strain MP-12; 8 to 32 µg/mL (≈ 11.7 to 46.7 µM) in assay [2]; at least 32 µg/mL in assay [3].

Consider `CO[C@]1(C)C[C@@H](C)CN[C@H](C)[C@H]2NC(=O)O[C@]2(C)[C@@H](C)OC(=O)C(C)C(=O)[C@H](C)[C@H]1OC1OC(CN(C)C2CCC2)CC(N(C)C)C1O` (stereo partly shown) [Compound 155, 3-Descladinosyl-3-oxo-6-O-methyl-N9a-desmethyl-11,12-dideoxy-12,11-(oxycarbonylimino)-6′-methylcyclobutylamino-13-methyl Azithromycin], for which the MIC in assay [1] was 8 to 32 µg/mL (≈ 11.7 to 46.9 µM); against E. coli strain MP-4 it was at most 4 µg/mL; against S. aureus strain MP-12, at least 32 µg/mL; in assay [2] it was 8 to 32 µg/mL (≈ 11.7 to 46.9 µM); in assay [3] it was at least 32 µg/mL.

With `CO[C@]1(C)C[C@@H](C)CN[C@H](C)[C@H]2NC(=O)O[C@]2(C)[C@@H](C)OC(=O)C(C)C(=O)[C@H](C)[C@H]1OC1OC(CN(C)CC2CC2)CC(N(C)C)C1O` (stereo partly shown) [Compound 156, 3-Desdadinosyl-3-oxo-6-O-methyl-N9a-desmethyl-11,12-dideoxy-12,11-(oxycarbonylimino)-6′-methylcyclopropylmethyl-13-methyl Azithromycin], the MIC (in assay [1]; against E. coli strain MP-4; with S. aureus strain MP-12; in assay [2]; in assay [3]) was at least 32 µg/mL each time.

With `CC[C@H]1OC(=O)C(C)C(=O)[C@H](C)[C@@H](OC2OC(CN(C)C3CC3)CC(N(C)C)C2O)[C@](C)(OC)C[C@@H](C)CN(C)[C@H](C)[C@H]2NC(=O)O[C@@]21C` (stereo partly shown) [Compound 157, 3-Descladinosyl-3-oxo-6-O-methyl-11,12-dideoxy-12,11-(oxycarbonylimino)-6′-[N-(methyl)cyclopropylamino]Azithromycin], the MIC in assay [1] is 8 to 32 µg/mL (≈ 11.5 to 45.9 µM); against E. coli strain MP-4 it was at most 4 µg/mL; against S. aureus strain MP-12 it was 8 to 32 µg/mL (≈ 11.5 to 45.9 µM); in assay [2], 8 to 32 µg/mL (≈ 11.5 to 45.9 µM); in assay [3], at least 32 µg/mL.

Consider `CC[C@H]1OC(=O)C(C)C(=O)[C@H](C)[C@@H](OC2OC(CN(C)CC)CC(N(C)C)C2O)[C@](C)(OC)C[C@@H](C)CN(C)[C@H](C)[C@H]2NC(=O)O[C@@]21C` (stereo partly shown) [Compound 158, 3-Descladinosyl-3-oxo-6-O-methyl-11,12-dideoxy-12,11-(oxycarbonylimino)-6′-ethylmethylamino Azithromycin], for which the MIC was at least 32 µg/mL in assay [1]; at most 4 µg/mL in the assay on E. coli strain MP-4; at least 32 µg/mL in the assay with S. aureus strain MP-12; 8 to 32 µg/mL (≈ 11.7 to 46.7 µM) in assay [2]; at least 32 µg/mL in assay [3].

As for `CC[C@H]1OC(=O)C(C)C(=O)[C@H](C)[C@@H](OC2OC(CN(C)C)CC(N(C)C)C2O)[C@](C)(OC)C[C@@H](C)CN(C)[C@H](C)[C@H]2NC(=O)O[C@@]21C` (stereo partly shown) [Compound 159, 3-Descladinosyl-3-oxo-6-O-methyl-11,12-dideoxy-12,11-(oxycarbonylimino)-6′-dimethylamino Azithromycin], the MIC in assay [1] was at least 32 µg/mL; in the assay with E. coli strain MP-4, at most 4 µg/mL; against S. aureus strain MP-12, at least 32 µg/mL; in assay [2], 8 to 32 µg/mL (≈ 11.9 to 47.7 µM); in assay [3], at least 32 µg/mL.

Turning to `CC[C@H]1OC(=O)C(C)C(=O)[C@H](C)[C@@H](OC2OC(CN(C)C(C)C)CC(N(C)C)C2O)[C@](C)(OC)C[C@@H](C)CN(C)[C@H](C)[C@H]2NC(=O)O[C@@]21C` (stereo partly shown) [Compound 160, 3-Desdadinosyl-3-oxo-6-O-methyl-9a-desmethyl-11,12-dideoxy-12,11-(oxycarbonylimino)-6′-isopropylmethylamino Azithromycin], the MIC is at least 32 µg/mL in assay [1]; at most 4 µg/mL with E. coli strain MP-4; at least 32 µg/mL against S. aureus strain MP-12; at least 32 µg/mL in assay [2]; at least 32 µg/mL in assay [3].

In the case of `CC[C@H]1OC(=O)C(C)C(=O)[C@H](C)[C@@H](O[C@@H]2O[C@H](CNC3CC3)CC(N(C)C)[C@H]2O)[C@](C)(OC)C[C@@H](C)CN(C)[C@H](C)[C@H]2NC(=O)O[C@@]21C` (stereo partly shown) [Compound 161, 3-Descladinosyl-3-oxo-6-O-methyl-11,12-dideoxy-12,11-(oxycarbonylimino)-6′-cyclopropylamino Azithromycin], the MIC in assay [1] is 8 to 32 µg/mL (≈ 11.7 to 46.9 µM); in the assay on E. coli strain MP-4, at most 4 µg/mL; in the assay on S. aureus strain MP-12, 8 to 32 µg/mL (≈ 11.7 to 46.9 µM); in assay [2], at most 4 µg/mL; in assay [3], at least 32 µg/mL.

`CC[C@H]1OC(=O)C(C)C(=O)[C@H](C)[C@@H](O[C@@H]2O[C@H](CNCC3CC3)CC(N(C)C)[C@H]2O)[C@](C)(OC)C[C@@H](C)CN(C)[C@H](C)[C@H]2NC(=O)O[C@@]21C` (stereo partly shown) [Compound 162, 3-Descladinosyl-3-oxo-6-O-methyl-11,12-dideoxy-12,11-(oxycarbonylimino)-6′-cyclopropylmethylamino Azithromycin]: the minimum inhibitory concentration (MIC) in assay [1] is at least 32 µg/mL; against E. coli strain MP-4 it was at most 4 µg/mL; in the assay with S. aureus strain MP-12, at least 32 µg/mL; in assay [2], 8 to 32 µg/mL (≈ 11.5 to 45.9 µM); in assay [3], at least 32 µg/mL.

On to `CC[C@H]1OC(=O)C(C)C(=O)[C@H](C)[C@@H](O[C@@H]2O[C@H](CNC3CCC3)CC(N(C)C)[C@H]2O)[C@](C)(OC)C[C@@H](C)CN(C)[C@H](C)[C@H]2NC(=O)O[C@@]21C` (stereo partly shown) [Compound 163, 3-Descladinosyl-3-oxo-6-O-methyl-11,12-dideoxy-12,11-(oxycarbonylimino)-6′-cyclobutylamino Azithromycin], for which the minimal inhibitory concentration (MIC) in assay [1] is at least 32 µg/mL; in the assay with E. coli strain MP-4, at most 4 µg/mL; against S. aureus strain MP-12 it was at least 32 µg/mL; in assay [2], at most 4 µg/mL; in assay [3] it was at least 32 µg/mL.

Take `CC[C@H]1OC(=O)C(C)C(=O)[C@H](C)[C@@H](O[C@@H]2O[C@H](CNC(C)C)CC(N(C)C)[C@H]2O)[C@](C)(OC)C[C@@H](C)CN(C)[C@H](C)[C@H]2NC(=O)O[C@@]21C` (stereo partly shown) [Compound 164, 3-Descladinosyl-3-oxo-6-O-methyl-11,12-dideoxy-12,11-(oxycarbonylimino)-6′-isopropylamino Azithromycin]: the MIC in assay [1] was at least 32 µg/mL; in the assay on E. coli strain MP-4, at most 4 µg/mL; in the assay with S. aureus strain MP-12 it was at least 32 µg/mL; in assay [2], 8 to 32 µg/mL (≈ 11.7 to 46.7 µM); in assay [3], at least 32 µg/mL.
